Measurements reported in patent US8883782B2, “Spiro-tetracyclic ring compounds as beta-secretase modulators and methods of use” (Amgen Inc., priority 2010, dated 2014).

Tests used:
[1] = test system: Aβ40 in conditioned medium of cells stably expressing Amyloid Precursor Protein (APP); assay: In vitro BACE cell-based assay (Aβ40 in conditioned medium, sandwich ELISA); settings: Homo sapiens, HEK293, average IC50; read-out: HEK cell assay
Procedure, shortened: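 Conditioned medium from stably APP-expressing cells treated with compound dose series is assayed for Aβ40 by sandwich ELISA with time-resolved fluorescence detection. IC50 is calculated from percent inhibition of Aβ40 against compound concentration.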

[2] = biological target: Beta Secretase enzyme (BACE) (Homo sapiens, UniProt P56817); assay: In vitro enzymatic BACE FRET (fluorescence resonance energy transfer) assay; assay type: biochemical; settings: average IC50, enzyme assay; read-out: BACE 1 FRET assay
Procedure, shortened: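 Buffer 0.05 M acetate pH 4.2, 10% DMSO final, 100 uM genapol (sub-CMC); start with 50 nM FRET substrate; 1 h incubation; Tris stop; fluorescence read.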

Chain of Beta Secretase enzyme (BACE) (P56817 46-501, species assumed): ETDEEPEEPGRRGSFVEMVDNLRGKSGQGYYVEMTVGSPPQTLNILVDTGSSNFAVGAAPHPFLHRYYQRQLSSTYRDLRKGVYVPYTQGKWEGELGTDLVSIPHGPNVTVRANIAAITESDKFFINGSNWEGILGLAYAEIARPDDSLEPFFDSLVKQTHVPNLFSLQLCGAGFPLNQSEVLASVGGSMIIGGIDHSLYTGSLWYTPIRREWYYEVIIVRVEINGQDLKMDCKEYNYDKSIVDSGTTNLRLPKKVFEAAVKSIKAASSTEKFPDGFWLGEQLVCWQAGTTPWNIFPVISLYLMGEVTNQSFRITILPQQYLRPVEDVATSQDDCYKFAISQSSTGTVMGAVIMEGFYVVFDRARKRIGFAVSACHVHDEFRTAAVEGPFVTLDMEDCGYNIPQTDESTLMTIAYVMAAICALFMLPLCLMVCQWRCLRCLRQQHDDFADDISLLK

| Structure (SMILES) | IC50 [1] [nM] | IC50 [2] [nM] |
| --- | --- | --- |
| Cc1cc(-c2ccc3c(c2)[C@@]2(COC(N)=N2)c2cc(-c4ccncc4)ncc2O3)cnc1F [Example 229, (5S)-7-(6-fluoro-5-methyl-3-pyridinyl)-3-(4-pyridinyl)spiro[chromeno[2,3-c]pyridine-5,4′-[1,3]oxazol]-2′-amine] | 60.4 | 12.8 |
| Cc1cc(-c2ccc3c(c2)[C@@]2(COC(N)=N2)c2cc(-c4cccnc4)ncc2O3)cnc1F [Example 230, (5S)-7-(6-fluoro-5-methyl-3-pyridinyl)-3-(3-pyridinyl)spiro[chromeno[2,3-c]pyridine-5,4′-[1,3]oxazol]-2′-amine] | 36.3 | 8.1 |
| NC1=N[C@@]2(CO1)c1cc(-c3cncc(C4=CCOCC4)c3)ccc1Oc1cnc(C3=CCOCC3)cc12 [Example 231, (5S)-3-(3,6-dihydro-2H-pyran-4-yl)-7-(5-(3,6-dihydro-2H-pyran-4-yl)-3-pyridinyl)spiro[chromeno[2,3-c]pyridine-5,4′-[1,3]oxazol]-2′-amine] | 106 | 34 |
| Cn1cc(-c2cc3c(cn2)Oc2ccc(-c4cncc(Cl)c4)cc2[C@@]32COC(N)=N2)cn1 [Example 232, (5S)-7-(5-chloro-3-pyridinyl)-3-(1-methyl-1H-pyrazol-4-yl)spiro[chromeno[2,3-c]pyridine-5,4′-[1,3]oxazol]-2′-amine] | 7.4 | 1.3 |
| Cn1cc(-c2cncc(-c3ccc4c(c3)[C@@]3(COC(N)=N3)c3cc(-c5cnn(C)c5)ncc3O4)c2)cn1 [Example 233, (5S)-3-(1-methyl-1H-pyrazol-4-yl)-7-(5-(1-methyl-1H-pyrazol-4-yl)-3-pyridinyl)spiro[chromeno[2,3-c]pyridine-5,4′-[1,3]oxazol]-2′-amine] | 92 | 28 |
| NC1=N[C@]2(CO1)c1cc(-c3cccc(Cl)c3)ccc1Oc1cnc(C3=CCOCC3)cc12 [Example 234, (5R)-7-(3-chlorophenyl)-3-(3,6-dihydro-2H-pyran-4-yl)spiro[chromeno[2,3-c]pyridine-5,4′-[1,3]oxazol]-2′-amine] | 4280 | 490 |
| COc1ncc(Cl)cc1-c1ccc2c(c1)[C@@]1(COC(N)=N1)c1cc(C3=CCOCC3)ncc1O2 [Example 235, (5S)-7-(5-chloro-2-methoxy-3-pyridinyl)-3-(3,6-dihydro-2H-pyran-4-yl)spiro[chromeno[2,3-c]pyridine-5,4′-[1,3]oxazol]-2′-amine] | 14.7 | 1.2 |
| Cc1ccnc(F)c1-c1ccc2c(c1)[C@@]1(COC(N)=N1)c1cc(-c3ccnc(F)c3)ncc1O2 [Example 237, (5S)-7-(2-fluoro-4-methyl-3-pyridinyl)-3-(2-fluoro-4-pyridinyl)spiro[chromeno[2,3-c]pyridine-5,4′-[1,3]oxazol]-2′-amine] | 22.4 | 1.6 |
| NC1=N[C@@]2(CO1)c1cc(-c3ccccc3)ccc1Oc1cnc(C3CCOCC3)cc12 [Example 238, (5S)-7-phenyl-3-(tetrahydro-2H-pyran-4-yl)spiro[chromeno[2,3-c]pyridine-5,4′-[1,3]oxazol]-2′-amine] | 164 | 40.7 |
| COc1ncccc1-c1ccc2c(c1)[C@@]1(COC(N)=N1)c1cc(-c3ccnc(F)c3)ncc1O2 [Example 239, (5S)-3-(2-fluoro-4-pyridinyl)-7-(2-methoxy-3-pyridinyl)spiro[chromeno[2,3-c]pyridine-5,4′-[1,3]oxazol]-2′-amine] | 389 | 33.5 |
| COc1ncccc1-c1ccc2c(c1)[C@@]1(COC(N)=N1)c1cc(C3=CCOCC3)ncc1O2 [Example 240, (5S)-3-(3,6-dihydro-2H-pyran-4-yl)-7-(2-methoxy-3-pyridinyl)spiro[chromeno[2,3-c]pyridine-5,4′-[1,3]oxazol]-2′-amine] | 108 | 17.3 |
| NC1=N[C@@]2(CO1)c1cc(-c3cccc(Cl)c3)ccc1Oc1cnc(C3CCOCC3)cc12 [Example 241, (5S)-7-(3-chlorophenyl)-3-(tetrahydro-2H-pyran-4-yl)spiro[chromeno[2,3-c]pyridine-5,4′-[1,3]oxazol]-2′-amine] | 62.9 | 3.4 |
| NC1=N[C@@]2(CO1)c1cc(-c3cncc(Cl)c3)ccc1Oc1cnc(C3CCOCC3)cc12 [Example 242, (5S)-7-(5-chloro-3-pyridinyl)-3-(tetrahydro-2H-pyran-4-yl)spiro[chromeno[2,3-c]pyridine-5,4′-[1,3]oxazol]-2′-amine] | 21.1 | 3.1 |
| Cn1cc(-c2cccc(-c3ccc4c(c3)[C@@]3(COC(N)=N3)c3cc(C5=CCOCC5)ncc3O4)c2)cn1 [Example 243, (5S)-3-(3,6-dihydro-2H-pyran-4-yl)-7-(3-(1-methyl-1H-pyrazol-4-yl)phenyl)spiro[chromeno[2,3-c]pyridine-5,4′-[1,3]oxazol]-2′-amine] | 287 | 19.5 |
| CCn1cc(-c2cccc(-c3ccc4c(c3)[C@@]3(COC(N)=N3)c3cc(C5=CCOCC5)ncc3O4)c2)cn1 [Example 244, (5S)-3-(3,6-dihydro-2H-pyran-4-yl)-7-(3-(1-ethyl-1H-pyrazol-4-yl)phenyl)spiro[chromeno[2,3-c]pyridine-5,4′-[1,3]oxazol]-2′-amine] | 326 | 53.7 |
| Cc1noc(C)c1-c1cccc(-c2ccc3c(c2)[C@@]2(COC(N)=N2)c2cc(C4=CCOCC4)ncc2O3)c1 [Example 245, (5S)-3-(3,6-dihydro-2H-pyran-4-yl)-7-(3-(3,5-dimethyl-4-isoxazolyl)phenyl)spiro[chromeno[2,3-c]pyridine-5,4′-[1,3]oxazol]-2′-amine] | 529 | 23 |
| Cc1cnccc1-c1cc2c(cn1)Oc1ccc(-c3cccnc3F)cc1[C@@]21COC(N)=N1 [Example 246, (5S)-7-(2-fluoro-3-pyridinyl)-3-(3-methyl-4-pyridinyl)spiro[chromeno[2,3-c]pyridine-5,4′-[1,3]oxazol]-2′-amine] | 291 | 54.2 |
| Cc1ncccc1-c1ccc2c(c1)[C@@]1(COC(N)=N1)c1cc(C3=CCOCC3)ncc1O2 [Example 247, (5S)-3-(3,6-dihydro-2H-pyran-4-yl)-7-(2-methyl-3-pyridinyl)spiro[chromeno[2,3-c]pyridine-5,4′-[1,3]oxazol]-2′-amine] | 45.5 | 44.9 |
| Cc1ncccc1-c1ccc2c(c1)[C@@]1(COC(N)=N1)c1cc(-c3ccnc(F)c3)ncc1O2 [Example 248, (5S)-3-(2-fluoro-4-pyridinyl)-7-(2-methyl-3-pyridinyl)spiro[chromeno[2,3-c]pyridine-5,4′-[1,3]oxazol]-2′-amine] | 191 | 99.1 |
| Cc1nc(F)ccc1-c1ccc2c(c1)[C@@]1(COC(N)=N1)c1cc(C3=CCOCC3)ncc1O2 [Example 251, (5S)-3-(3,6-dihydro-2H-pyran-4-yl)-7-(6-fluoro-2-methyl-3-pyridinyl)spiro[chromeno[2,3-c]pyridine-5,4′-[1,3]oxazol]-2′-amine] | 271 | 26.8 |
| Cc1nc(F)ccc1-c1ccc2c(c1)[C@@]1(COC(N)=N1)c1cc(-c3ccnc(F)c3)ncc1O2 [Example 252, (5S)-7-(6-fluoro-2-methyl-3-pyridinyl)-3-(2-fluoro-4-pyridinyl)spiro[chromeno[2,3-c]pyridine-5,4′-[1,3]oxazol]-2′-amine] | 548 | 66.1 |
| Cc1ccc(-c2ccc3c(c2)[C@@]2(COC(N)=N2)c2cc(C4=CCOCC4)ncc2O3)c(F)n1 [Example 253, (5S)-3-(3,6-dihydro-2H-pyran-4-yl)-7-(2-fluoro-6-methyl-3-pyridinyl)spiro[chromeno[2,3-c]pyridine-5,4′-[1,3]oxazol]-2′-amine] | 320 | 36 |
| Cc1ccc(-c2ccc3c(c2)[C@@]2(COC(N)=N2)c2cc(-c4ccnc(F)c4)ncc2O3)c(F)n1 [Example 254, (5S)-7-(2-fluoro-6-methyl-3-pyridinyl)-3-(2-fluoro-4-pyridinyl)spiro[chromeno[2,3-c]pyridine-5,4′-[1,3]oxazol]-2′-amine] | 1070 | 54.5 |
| Cc1nn(C)cc1-c1cccc(-c2ccc3c(c2)[C@@]2(COC(N)=N2)c2cc(C4=CCOCC4)ncc2O3)c1 [Example 255, (5S)-3-(3,6-dihydro-2H-pyran-4-yl)-7-(3-(1,3-dimethyl-1H-pyrazol-4-yl)phenyl)spiro[chromeno[2,3-c]pyridine-5,4′-[1,3]oxazol]-2′-amine] | 565 | 22.3 |
| CC(C)(C#N)COc1cc(F)c2c(c1)[C@]1(COC(N)=N1)c1cc(-c3cccnc3)ccc1O2 [Example 257, 3-(((4S)-2-amino-4′-fluoro-7′-(3-pyridinyl)spiro[1,3-oxazole-4,9′-xanthen]-2′-yl)oxy)-2,2-dimethylpropanenitrile] | 6.3 | 1 |
| NC1=N[C@@]2(CO1)c1cc(-c3ccc(F)nc3)ccc1Oc1c(F)cc(OCC3CCOCC3)cc12 [Example 258, (4S)-4′-fluoro-7′-(6-fluoro-3-pyridinyl)-2′-(tetrahydro-2H-pyran-4-ylmethoxy)spiro[1,3-oxazole-4,9′-xanthen]-2-amine] | 30.4 | 6 |
| CC(C)(F)COc1cc(F)c2c(c1)[C@]1(COC(N)=N1)c1cc(-c3ccc(F)nc3)ccc1O2 [Example 259, (4S)-4′-fluoro-2′-(2-fluoro-2-methylpropoxy)-7′-(6-fluoro-3-pyridinyl)spiro[1,3-oxazole-4,9′-xanthen]-2-amine] | 19.8 | 2.7 |
| NC1=N[C@@]2(CO1)c1cc(-c3ccc(F)nc3)ccc1Oc1c(F)cc(C3=CCOCC3)cc12 [Example 260, (4S)-2′-(3,6-dihydro-2H-pyran-4-yl)-4′-fluoro-7′-(6-fluoro-3-pyridinyl)spiro[1,3-oxazole-4,9′-xanthen]-2-amine] | 10.9 | 1.9 |
